In patent EP0129947A2, “Contraceptive compositions based on esters of levo-norgestrel” (priority 1983, dated 1985):

Key:
[1] = test system: female rats; assay: estrus suppression assay (duration of suppression of vaginal cornification after one subcutaneous injection); format: in vivo, rats of the Sprague-Dawley strain; conditions: for effect of formulation on results: aqueous microcrystalline suspension of particle size 3 to 10µ (50% cumulative oversize, Coulter); for durations of suppression: aqueous microcrystalline suspension, subcutaneous; for duration of action in words: cyclic esters of the series of Table 1 and Fig. 1; for suppression of estrus compared with DMPA at 16 mg/rat: ester at 8 mg/rat, aqueous microcrystalline suspension (Figure 1)
Description: These were subjected to a biological screening programme designed to uncover new and effective sustained- release injectable contraceptives, the compounds being tested as injectable oily solutions or aqueous suspensions. The initial test was to determine the duration of suppression of estrus in female rats, with DMPA and norethisterone enanthate being used as comparison-standards. The most promising compounds were then tested in primates.
The bioassay used to determine the duration of action of the contraceptive compositions involved measuring the suppression of estrus in female rats. The compositions were used at four dosage levels, i.e. 2, 4, 8 and 16 mg/rat.
The long-acting properties of each formulation were determined in estrus suppression assay employing virgin, mature (180-200 g) cycling rats of the Sprague-Dawley strain purchased from Charles River Laboratories, USA. Upon receipt the animals were smeared daily for cyclicity and only those animals showing two consecutive normal cycles were used. Each animal was injected subcutaneously with 0.8 ml of the test preparation on the same day regardless of the stage of the cycle. Each compound was initially tested on ten rats. A series of initial tests with injections of 16 mg/animal were followed by studies at dose levels of 8, 4 and 2 mg/animal where necessary. An aqueous microcrystalline suspension of medroxyprogesterone acetate was used as standard. Daily smears were taken starting on the day after injection and continued until such time that cornification of vaginal epithelium was observed and cycling was re-established. Duration of cornification suppression is expressed as the total number of days minus two. The appearance of cornification was not always followed by the return of normal estrus cycles.

[2] = pharmacokinetics in the monkey (circulating levo norgestrel after injection); conditions: monkey Macaca mulata
[3] = 8 mg/rat, majority of experiments terminated at 91 days post injection

Compound: C#C[C@]1(OC(=O)C2CCCC2)CC[C@H]2[C@@H]3CCC4=CC(=NO)CC[C@@H]4[C@H]3CC[C@@]21CC [levo-norgestrel cyclopentylcarboxylate 3-oxime]
- effect of formulation on results [1]: better results

Compound: C#C[C@]1(OC(=O)C2CCC2)CC[C@H]2[C@@H]3CCC4=CC(=O)CC[C@@H]4[C@H]3CC[C@@]21CC [levo-norgestrel cyclobutylcarboxylate]
- durations of suppression ([1]; 2 mg/rat): 31.9 days
- durations of suppression ([1]; 4 mg/rat): 55.7 days
- durations of suppression [1, 3]: 89.2 days
- durations of suppression ([1]; 16 mg/rat): > 91 days
- effect of formulation on return to estrus ([1]; Figure II: aqueous microcrystalline suspension 3 to 10µ versus solution in sesame oil or in ethyl oleate, groups of ten rats): longer term effect of the ester when micro-dispersed in aqueous medium
- duration of action in words [1]: long-acting
- suppression of estrus compared with DMPA at 16 mg/rat ([1]; listed as cyclobutyl carboxylate): better suppression than DMPA at a dosage of 16 mg/rat
- suppression of estrus compared with DMPA at 16 mg/rat ([1]; listed as cyclobutylcarboxylate): the same inhibition as DMPA at 16 mg
- activity relative to the aqueous suspension ([1]; microcrystalline suspension in ethyl oleate (Table 11)): approximately 40%
- activity by formulation ([1]; solution in a 50:50 mixture of ethyl oleate and benzyl benzoate (BB), compared with the suspensions): Further reduction in activity
- time during which measurable levels of levo norgestrel are still present in the circulation after injection [2]: > 100 days

Compound: CC(=O)O[C@]1(C(C)=O)CC[C@H]2[C@@H]3C[C@H](C)C4=CC(=O)CC[C@]4(C)[C@H]3CC[C@@]21C [DMPA, medroxyprogesterone acetate, reference compound]
- durations of suppression ([1]; 2 mg/rat): 20.9 days
- durations of suppression ([1]; 4 mg/rat): 28.2 days
- durations of suppression [1, 3]: 55.5 days
- durations of suppression ([1]; 16 mg/rat): 60.0 days
- average suppression duration ([1]; microcrystalline suspension, rat, dose not given): 63.7 days

Compound: C#C[C@]1(OC(=O)C2CCCC2)CC[C@H]2[C@@H]3CCC4=CC(=O)CC[C@@H]4[C@H]3CC[C@@]21CC [cyclopentylcarboxylate, Levo-norgestrel 17β-cyclopentyl carboxylate, reference compound]
- effectiveness in words ([1]; 16 mg dose): relatively ineffective
- duration of action in words [1]: short acting

Compound: C#C[C@]1(OC(=O)C2CC2)CC[C@H]2[C@@H]3CCC4=CC(=O)CC[C@@H]4[C@H]3CC[C@@]21CC [levo-norgestrel cyclopropylcarboxylate]
- durations of suppression ([1]; 4 mg/rat): 55.6 days
- durations of suppression [1, 3]: 74.0 days
- duration of action in words [1]: long-acting
- suppression of estrus compared with DMPA at 16 mg/rat [1]: better suppression than DMPA at a dosage of 16 mg/rat

Compound: norethisterone enanthate [reference compound]
- average duration ([1]; oily solution, rat, dose not given): 23.1 days

Compound: C#C[C@]1(OC(=O)C2CCCCC2)CC[C@H]2[C@@H]3CCC4=CC(=NO)CC[C@@H]4[C@H]3CC[C@@]21CC [levo-norgestrel cyclohexylcarboxylate 3-oxime]
- effect of formulation on results [1]: better results

Compound: C#C[C@]1(OC(=O)CCC)CC[C@H]2[C@@H]3CCC4=CC(=O)CC[C@@H]4[C@H]3CC[C@@]21CC [levo-norgestrel butanoate]
- durations of suppression ([1]; 2 mg/rat): 34.4 days
- durations of suppression ([1]; 4 mg/rat): 65.1 days
- durations of suppression [1, 3]: < 91 days
- suppression of estrus compared with DMPA at 16 mg/rat [1]: better suppression than DMPA at a dosage of 16 mg/rat
